Reference: patent US20110177105A1, “Novel Selective Inhibitors of Ubiquitin Specific Protease 7, the Pharmaceutical Compositions Thereof and Their Therapeutic Applications” (priority 2010, published 2011)

These compounds were tested against T1, UCH-L3 (Homo sapiens, UniProt P15374) (assay: UCH-L3 activity assay (Ub-AMC)). Details: 300 nM Ub-AMC, 13 pM enzyme.
T1 sequence (P15374 1-230): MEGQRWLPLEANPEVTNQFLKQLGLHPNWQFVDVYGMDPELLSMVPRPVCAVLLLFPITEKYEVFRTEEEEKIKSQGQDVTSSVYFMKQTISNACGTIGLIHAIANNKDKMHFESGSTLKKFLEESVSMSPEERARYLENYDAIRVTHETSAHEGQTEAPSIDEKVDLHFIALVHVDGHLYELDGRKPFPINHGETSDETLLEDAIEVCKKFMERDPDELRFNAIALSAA
Format: biochemical
Procedure: UCH-L3 was diluted in USP buffer (50 mM Tris HCl; 0.5 mM EDTA; 5 mM DTT; 0.01% Triton X-100; Bovine Serum Albumin 0.05 mg·ml^−1 pH 7.6). Compounds stocks (100 mM) were stored at −20° C. in DMSO. Compounds were tested at different concentrations: from 200 μM to 91 nM.
Reactions were performed as duplicates in Black 384 well plates (small volume microplates; Greiner; 10 μl final reaction volume). The substrate concentration for UCH-L3 was 300 nM Ub-AMC (Boston Biochem). The concentration of the enzyme (UCH-L3) in specificity assays was 13 pM. The concentrations were determined in order to perform specificity assays under initial velocities at fixed substrate concentration. Compounds were pre-incubated with enzymes for 30 minutes at 25° C. Reactions were initiated by addition of substrate to the plates containing the enzymes (+/−compounds) diluted in assay buffer. Reactions were incubated for 60 minutes at 37° C. Reactions were stopped by adding acetic acid (100 mM final). Readings were performed on a Pherastar Fluorescent Reader (BMG). λ Emission 380 nm; λ Excitation=460 nm. Data (mean values+/−standard deviation) were analyzed as % of control (no compound) and plotted as percentage versus the Log of the compound concentration using GraphPad (Prism). Data were fitted to a sigmoidal model (variable slope).
In the case of `Cc1cccc(CN2CCC(CNC(=O)c3ccc4c(Cl)c5c(nc4c3)CCCC5)CC2)c1` [Example 1, 9-Chloro-5,6,7,8-tetrahydro-acridine-3-carboxylic acid [1-(3-methyl-benzyl)-piperidin-4-ylmethyl]-amide], the IC50 is reported as > 200 µM.
In the case of `CCN1CCCC1CNC(=O)c1ccc2c(Cl)c3c(nc2c1)CCCC3` (stereo not shown) [Example 2, 9-Chloro-5,6,7,8-tetrahydro-acridine-3-carboxylic acid (1-ethyl-pyrrolidin-2-ylmethyl)-amide], the IC50 is reported as > 200 µM.
With `CCCN(CCC)CCNC(=O)c1ccc2c(Cl)c3c(nc2c1)CCCC3` [Example 3, 9-Chloro-5,6,7,8-tetrahydro-acridine-3-carboxylic acid (2-dipropylamino-ethyl)-amide] the IC50 was > 200 µM.
In the case of `CCCCN(CC)CCNC(=O)c1ccc2c(Cl)c3c(nc2c1)CCCC3` [Example 4, 9-Chloro-5,6,7,8-tetrahydro-acridine-3-carboxylic acid [2-(butyl-ethyl-amino)-ethyl]-amide], the IC50 is reported as > 200 µM.
With `CCN(CCCNC(=O)c1ccc2c(Cl)c3c(nc2c1)CCCC3)Cc1ccccc1` [Example 5, 9-Chloro-5,6,7,8-tetrahydro-acridine-3-carboxylic acid [3-(benzyl-ethyl-amino)-propyl]-amide] the IC50 was > 200 µM.
For `CCCN(CCC)CCCNC(=O)c1ccc2c(Cl)c3c(nc2c1)CCCC3` [Example 6, 9-Chloro-5,6,7,8-tetrahydro-acridine-3-carboxylic acid (3-dipropylamino-propyl)-amide], the IC50 was > 200 µM.
In the case of `CCN(CC)CCNC(=O)c1ccc2c(Cl)c3c(nc2c1)CCCC3` [Example 7, 9-Chloro-5,6,7,8-tetrahydro-acridine-3-carboxylic acid (2-diethylamino-ethyl)-amide], the IC50 is reported as > 200 µM.
With `O=C(NCCCN1CCCC1)c1ccc2c(Cl)c3c(nc2c1)CCCC3` [Example 8, 9-Chloro-5,6,7,8-tetrahydro-acridine-3-carboxylic acid (3-pyrrolidin-1-yl-propyl)-amide] the IC50 was > 200 µM.
For `CC1CCCC(C)N1CCCNC(=O)c1ccc2c(Cl)c3c(nc2c1)CCCC3` (stereo not shown) [Example 9, 9-Chloro-5,6,7,8-tetrahydro-acridine-3-carboxylic acid [3-(2,6-dimethyl-piperidin-1-yl)-propyl]-amide], the IC50 was > 200 µM.
In the case of `CCN(CC)CCCNC(=O)c1ccc2c(Cl)c3c(nc2c1)CCCC3` [Example 10, 9-Chloro-5,6,7,8-tetrahydro-acridine-3-carboxylic acid (3-diethylamino-propyl)-amide], the IC50 is reported as > 200 µM.
`CN(C)CCNC(=O)c1ccc2c(Cl)c3c(nc2c1)CCCC3` [Example 11, 9-Chloro-5,6,7,8-tetrahydro-acridine-3-carboxylic acid (2-dimethylamino-ethyl)-amide] was tested, and the IC50 was > 200 µM.
In the case of `O=C(c1ccc2c(Cl)c3c(nc2c1)CCCC3)N1CCCCCC1` [Example 12, Azepan-1-yl-(9-chloro-5,6,7,8-tetrahydro-acridin-3-yl)-methanone], the IC50 is reported as > 200 µM.
For `CCCN1CCN(CCCNC(=O)c2ccc3c(Cl)c4c(nc3c2)CCCC4)CC1` [Example 13, 9-Chloro-5,6,7,8-tetrahydro-acridine-3-carboxylic acid [3-(4-propyl-piperazin-1-yl)-propyl]-amide], the IC50 was > 200 µM.
`CN(CCCNC(=O)c1ccc2c(Cl)c3c(nc2c1)CCCC3)Cc1ccccc1` [Example 14, 9-Chloro-5,6,7,8-tetrahydro-acridine-3-carboxylic acid [3-(benzyl-methyl-amino)-propyl]-amide] was tested, and the IC50 was > 200 µM.
In the case of `CN1CCN(CCCNC(=O)c2ccc3c(Cl)c4c(nc3c2)CCCC4)CC1` [Example 15, 9-Chloro-5,6,7,8-tetrahydro-acridine-3-carboxylic acid [3-(4-methyl-piperazin-1-yl)-propyl]-amide], the IC50 is reported as > 200 µM.
For `O=C(c1ccc2c(Cl)c3c(nc2c1)CCCC3)N1CCC(N2CCCCC2)CC1` [Example 16, [1,4′]Bipiperidinyl-1′-yl-(9-chloro-5,6,7,8-tetrahydro-acridin-3-yl)-methanone], the IC50 was > 200 µM.
